Test results: patent US20060148732A1, “Inhibition of NF-kappaB by triterpene compositions” (priority 2000, published 2006)

Experiments:
[1] = test system: Jurkat (T-cell leukemia) cells; assay: Cytotoxicity screen (MTT/crystal violet, 72 h); assay type: cell-based, human; details: for inhibitory concentration 50 (IC50), growth inhibition: MTT, 72 hours
Method: Each of the extracts was then screened against a panel of human tumor and non-tumor cells including human ovarian cancer cell lines, T-leukemic cells, human epidermoid cells, human breast cancer cells, human prostate cancer cells, human foreskin fibroblast cells, human endothelial cells, and human renal cancer cells. The cells were first plated in 96-well plates for 18-24 hours at 37° C. The cells were then exposed to varying concentrations of the plant extracts, and incubated for 72 hours at 37° C., and stained with either MTT (3-(4,5-dimethylethiazol-2-yl)-2,5-diphenyl tetrazolium bromide; Sigma Chemical Co.) for 4 hours or crystal violet (Sigma Chemical Co.) for 20 minutes at room temperature. The MTT plates received lysis buffer (20% sodium dodecyl sulfate in 50% DMF) and were incubated for an additional 6 hours before taking an OD reading at 570 nm. The crystal violet plates were washed, dye was extracted for 3-4 hours with Sorenson's buffer (0.1 M sodium citrate (pH 4.2), 50% v/v ethanol), and the plates were read at 570-600 nm (Mujoo et al., 1996). Cytotoxicity of the screened extracts was indicated by comparing the OD readings between the treated media alone and the cells treated with the plant extract. Percent cytotoxicity was calculated by 100-% of control, where % of control =[((OD of cells treated with plant extract (treated sample))/(OD of cells exposed to media alone (untreated sample)))×100].
Assay for Growth Inhibition. The growth inhibitory activity of F094 and avicins was measured by the MTT [3-(4, 5-Dimethylthiazol-2-yl)-2, 5-diphenyl tetrazolium bromide)] reduction assay (Deng et al., 1999). Cells (1×10^4/well) were cultured with varying concentrations of F094, avicin D, or avicin G in 96 well plates for 72 hours at 37° C. The cells were stained with MTT for 2 hours and then incubated with lysis buffer (20% sodium dodecyl sulfate in 50% N,N-dimethylformamide) for another 6 hours. Optical density at 570 nm was used as a measure of cell viability.

NF-κB in Jurkat cells = assay: EMSA of TNF-induced NF-κB activation; assay type: cell-based, human; details: for TNF-induced NF-κB activation: Jurkat cells; for decrease in NF-κB levels: pretreatment with 2 ml (so in the source), TNF 100 pM
Method: Next, in order to further study the mechanism by which the active components inhibited tumor cells, the TNF-alpha induced activation of the transcription factor NF-κB was analyzed in Jurkat cells (3×10^6) which had been treated with 1-2 μg/ml of UA-BRF-004-DELEP-F035 and UA-BRF-004Pod-DELEP-F094. The study was carried out as follows: Jurkat cells were pretreated with 1-2 μg/ml of F035 or F094 for 15 h at 37° C. Cells were harvested and resuspended in 1 ml RPMI and treated with 100 pM of TNF-alpha for 30 min at 37° C. After TNF-alpha treatment, nuclear extracts were prepared according to Schreiber et al (1989). Briefly, the cells were washed with ice cold PBS and suspended in 0.4 ml of lysis buffer (10 mM HEPES, pH 7.9, 10 mM KCl, 0.1 mM EDTA, […], 0.1 mM EGTA, 1 mM dithiothreitol, 0.5 mM PMSF, 2 μg/ml of leupeptin, 2 μg/ml of aprotinin and 0.5 mg/ml benzamidine). The cells were allowed to sit on ice for 15 min and 25 μl of 10% Nonidet-40 was added to the cells. The tubes were mixed on the vortex and microcentrifuged for 30 s. The nuclear pellet was resuspended in 25 μl of ice cold nuclear extraction buffer (20 mM HEPES, pH 7.9, 0.4 M NaCl, 1 mM EDTA, 1 mM EGTA, 1 mM dithiothreitol, 1 mM PMSF, 2 μg/ml leupeptin, 2.0 μg/ml aprotinin and 0.5 mg/ml benzamidine) and tubes were incubated on ice with intermittent agitation. The nuclear extract was microcentrifuged for […] at 4° C. and supernatants were stored at −70° C.
An electrophoretic mobility shift assay was performed by incubating the nuclear extracts (7 μg of protein) with ^32P-labeled NF-κB oligonucleotides (SEQ ID NO:1; NF-κB consensus oligonucleotide; Santa Cruz Biotechnology) in presence of 0.5 μg of poly di-dc in a binding buffer (25 mM HEPES, pH 7.9, 0.5 mM EDTA, 0.5 mM dithiothreitol, 1% Nonidet P-40, 5% glycerol and 50 mM NaCl for 20 min at 37° C.) (Nabel and Baltimore, 1987; Collart et al., 1990; Hassanain et al., 1993). The DNA-protein complex formed was separated from free oligonucleotide on 5% native polyacrylamide gel using buffer containing 50 mM Tris, 200 mM glycine and 1 mM EDTA. The gel was fixed in 10% acetic acid and dried and the bands were visualized using autoradiography with intensifying screen at −70° C.
An EMSA to study the effect of crude (F035) and pure extracts D1 and G1 on TNF (Genetech Inc.) induced NF-κB was done as described earlier. Jurkat cells (1×10^6/ml) were treated with different concentrations of crude and pure extracts for 15 hr at 37° C. Next the cells were exposed to 100 pM of TNF for 15 min at 37° C. Nuclear extracts were prepared as described before. Nuclear extracts were incubated with 16 fmol ^32P-end-labeled 45-mer double-stranded NF-κB oligonucleotide from the human immunodeficiency virus long terminal repeat,
for 15 min at 37° C. in the presence of 2 μg of poly (dI-dC). The DNA protein complex was separated from free oligonucleotide on 7.5% native polyacrylamide gels. The radioactive bands from the dried gels were visualized and quantitated by a PhosphoImager (Molecular Dynamics, Sunnyvale, Calif.) using ImageQuant software.
Treatment of Cells with Monoterpene Glycosides. Jurkat cells were taken at 1×10^6/ml in complete medium and treated with 2 μg/ml of F094, monoterpene/triterpene glycoside D1, or monoterpene/triterpene glycoside G1 for 8-16 h at 37° C. At the end of the treatment, cells were washed in complete medium and counted. An equal number of viable cells was used for different experiments.
Preparation of Cytoplasmic and Nuclear Extracts. Jurkat cells (2×10^6/ml) treated with F094 or the isolated monoterpene/triterpene glycosides G1 and/or D1 were exposed to TNF (1 nM for 15 min) at 37° C. After washing the cells in cold PBS, they were suspended in 0.4 ml of cytoplasmic extraction buffer (10 mM HEPES, pH 7.9, 10 mM KCl, 0.1 mM EDTA, 0.1 mM EGTA, 1 mM DTT, 0.5 mM phenylmethylsulfonylfluoride (PMSF), 2 μg/ml of leupeptin, 2 μg/ml aprotinin, 0.5 mg/ml benzamidine) for 15 min on ice. […]

Row | SMILES | inhibitory concentration 50 (IC50), growth inhibition [1] | Cytotoxicity IC50 ([1]; pH 6.5) | Cytotoxicity IC50 ([1]; pH 7.5) | TNF-induced NF-κB activation (NF-κB in Jurkat cells) | decrease in NF-κB levels (NF-κB in Jurkat cells; Jurkat) | potency in inhibiting TNF-induced NF-κB relative to mixture (NF-κB in Jurkat cells; Jurkat) | decrease in TNF-induced NF-κB (NF-κB in Jurkat cells; Jurkat, 0.5 μg/ml for 16 h, TNF 1 nM) | effect of DTT (100 μM, 2 h pretreatment) on inhibition of NF-κB activation (NF-κB in Jurkat cells; Jurkat, 2 μg/ml for 8 h) | inhibition of TNF-induced NF-κB (NF-κB in Jurkat cells; Jurkat, 2 μg/ml for 16 h, TNF 1 nM) | time of maximal inhibition of TNF-induced NF-κB (NF-κB in Jurkat cells; Jurkat, 2 μg/ml, 1-16 hours, TNF 1 nM)
1 | C=C[C@](C)(O)CC/C=C(\CO)C(=O)O[C@H]1[C@H](O)[C@@H](O)[C@H](O[C@@](C)(C=C)CC/C=C(\CO)C(=O)O[C@H]2C[C@]3(C(=O)O[C@@H]4O[C@H](CO)[C@@H](O)[C@H](O)[C@H]4O[C@@H]4O[C@@H](C)[C@H](O[C@@H]5O[C@@H](CO)[C@H](O)[C@H]5O)[C@@H](O[C@@H]5O[C@H](CO)[C@@H](O)[C@H](O)[C@H]5O)[C@H]4O)[C@H](O)C[C@]4(C)C(=CC[C@@H]5[C@@]6(C)CC[C@H](O[C@@H]7O[C@H](CO[C@@H]8O[C@H](C)[C@H](O)[C@H](O)[C@H]8O[C@@H]8OC[C@@H](O)[C@H](O)[C@H]8O)[C@@H](O)[C@H](O)[C@H]7NC(C)=O)C(C)(C)[C@@H]6CC[C@]54C)[C@@H]3CC2(C)C)O[C@@H]1C [Fraction D1] | 0.320 to 0.326 µg/mL | 1.01 µg/mL | 0.98 µg/mL | potent inhibitors | 87% | – | – | – | – | –
2 | C=C[C@](C)(O)CC/C=C(\C)C(=O)O[C@H]1[C@H](O)[C@@H](O)[C@H](O[C@@](C)(C=C)CC/C=C(\CO)C(=O)O[C@H]2C[C@]3(C(=O)O[C@@H]4O[C@H](CO)[C@@H](O)[C@H](O)[C@H]4O[C@@H]4O[C@@H](C)[C@H](O[C@@H]5O[C@@H](CO)[C@H](O)[C@H]5O)[C@@H](O[C@@H]5O[C@H](CO)[C@@H](O)[C@H](O)[C@H]5O)[C@H]4O)[C@H](O)C[C@]4(C)C(=CC[C@@H]5[C@@]6(C)CC[C@H](O[C@@H]7O[C@H](CO[C@@H]8O[C@H](C)[C@H](O)[C@H](O)[C@H]8O[C@@H]8OC[C@@H](O)[C@H](O)[C@H]8O)[C@@H](O)[C@H](O)[C@H]7NC(C)=O)C(C)(C)[C@@H]6CC[C@]54C)[C@@H]3CC2(C)C)O[C@@H]1C [Fraction G1] | 0.160 to 0.181 µg/mL | 0.3 µg/mL | 0.49 µg/mL | potent inhibitors | 54% | more potent than the mixture | ~50% | reversed | almost complete inhibition | 16 h
